Assay results: patent US8980934B2, “Kinase inhibitors and method of treating cancer with same” (University Health Network, priority 2012, dated 2015)
Blank lines part the entries; values can stand above or below the molecule they belong to.

What was measured:
Test in all cases: Cancer cell growth inhibition, Sulforhodamine B assay
Type in all cases: cell-based
[1] = tested on: HCT116 colon cancer cells; details: Homo sapiens, HCT-116, 120 h; HCT116, 5 days culture, SRB; read-out: Cancer Cell Line GI50 Range HCT116
Description: (§1) Breast cancer cells (MDA-MB-231), colon cancer cells (HCT116) and ovarian cancer cells (PA-1) were seeded (1000 to 4000 in 80 μl per well depending on the cell growth rate) into 96 well plates 24 hours before compound overlay. Compounds were prepared as 10 mM stock solutions in 100% DMSO which were diluted with DMEM (Dulbecco's Modified Eagle's Medium) cell growth Medium (Invitrogen, Burlington, ON, Canada) containing 10% FBS (Fetal Bovine Serum) to concentrations ranging from 50 nM to 250 μM. Aliquots (20 μl) from each concentration were overlaid to 80 μl of the pre-seeded cells in the 96 well plates to make final concentrations of 10 nM to 50 μM. The cells were cultured for 5 days before the Sulforhodamine B assay (SRB) was performed to determine the compound's cell growth inhibition activity.
(§2) Sulforhodamine B (purchased from Sigma, Oakville, ON, Canada) is a water-soluble dye that binds to the basic amino acids of the cellular proteins. Thus, colorimetric measurement of the bound dye provides an estimate of the total protein mass that is related to the cell number. the cells are fixed in situ by gently aspirating off the culture media and adding 50 μl ice cold 10% Trichloroacetic Acid (TCA) per well and incubate at 4° C. for 30-60 min. The plates are washed with H2O five times and allowed to air dry for 5 min. Addition of 50 μl 0.4% (w/v) SRB solution in 1% (v/v) acetic acid to each well and incubatation for 30 min at RT completes the staining reaction. Following staining, plates are washed four times with 1% acetic acid to remove unbound dye and then allowed to air dry for 5 min. The stain is solubilized with 100 μl of 10 mM Tris pH 10.5 per well. Absorbance is read at 570 nm.
(§3) The percentage (%) of relative growth inhibition was calculated by comparing to DMSO treated only cells (100%). GI50's were determined for compounds with cytotoxic activity. The GI50 was calculated using GraphPad PRISM software (GraphPad Software, Inc., San Diego, Calif., USA). GI50 (growth inhibition) is the compound concentration that causes 50% inhibition of cell growth.
(§4) In Table 1 below, GI50 value ranges for several compound examples against breast cancer cell lines (MDA-MB-231), colon cancer cell lines (HCT116) and ovarian cancer cell lines (PA-1) are given. […] The GI50 ranges are indicated as “A,” “B,” and “C,” for values less than or equal to 0.1 μM; those greater than 0.1 μM and less than or equal to 0.5 μM; and those greater than 0.5 μM, respectively.

[2] = tested on: PA-1 ovarian cancer cells; details: 120 h; PA-1, 5 days culture, SRB; read-out: Cancer Cell Line GI50 Range PA-1
Description: as §1, §2, §3, §4

[3] = tested on: MDA-MB-231 breast cancer cells; details: Homo sapiens, 120 h; MDA-MB-231, 5 days culture, SRB; read-out: Cancer Cell Line GI50 Range MDA-MB-231
Description: as §1, §2, §3, §4

Compound: O=C(N[C@@H](c1ccsc1)C1CCCC1)c1ccc2[nH]nc(-c3ccc(N4CC5(COC5)C4)cc3)c2c1 [Example A9, 3-(4-(2-Oxa-6-azaspiro[3.3]heptan-6-yl)phenyl)-N-((R)-cyclopentyl(thiophen-3-yl)methyl)-1H-indazole-5-carboxamide]
GI50 [1]: 100 to 500 nM
GI50 [2]: 100 to 500 nM
GI50 [3]: > 500 nM

Compound: CC(C)[C@@H](NC(=O)c1ccc2[nH]nc(-c3ccc(N4CC5(COC5)C4)cc3)c2c1)c1ccccc1Cl [Example A13, 3-(4-(2-Oxa-6-azaspiro[3.3]heptan-6-yl)phenyl)-N-((R)-1-(2-chlorophenyl)-2-methylpropyl)-1H-indazole-5-carboxamide]
GI50 [1]: ≤ 100 nM
GI50 [2]: ≤ 100 nM
GI50 [3]: 100 to 500 nM

Compound: O=C(NC(c1nccs1)C1CC1)c1ccc2[nH]nc(-c3ccc(N4CC5(COC5)C4)cc3)c2c1 (stereo not drawn) [Example A14, 3-(4-(2-Oxa-6-azaspiro[3.3]heptan-6-yl)phenyl)-N-(cyclopropyl(thiazol-2-yl)methyl)-1H-indazole-5-carboxamide]
GI50 [1]: ≤ 100 nM
GI50 [2]: ≤ 100 nM
GI50 [3]: ≤ 100 nM

Compound: O=C(NC(c1ccccn1)C1CC1)c1ccc2[nH]nc(-c3ccc(N4CCC5(COC5)C4)cc3)c2c1 (stereo not drawn) [Example A16, 3-(4-(2-Oxa-6-azaspiro[3.4]octan-6-yl)phenyl)-N-(cyclopropyl(pyridin-2-yl)methyl)-1H-indazole-5-carboxamide]
GI50 [1]: 100 to 500 nM
GI50 [2]: 100 to 500 nM
GI50 [3]: 100 to 500 nM

Compound: O=C(N[C@H](c1ccccc1)C1CC1)c1ccc2[nH]nc(-c3ccc(N4CC5(CCOCC5)C4)cc3)c2c1 [Example A17, (S)-3-(4-(7-Oxa-2-azaspiro[3.5]nonan-2-yl)phenyl)-N-(cyclopropyl(phenyl)methyl)-1H-indazole-5-carboxamide]
GI50 [1]: 100 to 500 nM
GI50 [2]: 100 to 500 nM
GI50 [3]: 100 to 500 nM

Compound: O=C(N[C@H](c1ccccn1)C1CC1)c1ccc2[nH]nc(-c3ccc(N4CC5(CCO5)C4)cc3)c2c1 [Example A21, (S)-3-(4-(1-Oxa-6-azaspiro[3.3]heptan-6-yl)phenyl)-N-(cyclopropyl(pyridin-2-yl)methyl)-1H-indazole-5-carboxamide]
GI50 [1]: ≤ 100 nM
GI50 [2]: ≤ 100 nM
GI50 [3]: ≤ 100 nM

Compound: O=C(N[C@@H](c1ccccn1)C1CC1)c1ccc2[nH]nc(-c3ccc(N4CC5(CCO5)C4)cc3)c2c1 [Example A22, (R)-3-(4-(1-Oxa-6-azaspiro[3.3]heptan-6-yl)phenyl)-N-(cyclopropyl(pyridin-2-yl)methyl)-1H-indazole-5-carboxamide]
GI50 [1]: ≤ 100 nM
GI50 [2]: ≤ 100 nM
GI50 [3]: ≤ 100 nM

Compound: O=C(N[C@H](c1ncccn1)C1CCCC1)c1ccc2[nH]nc(-c3ccc(N4CC5(COC5)C4)cc3)c2c1 [Example A25, (S)-3-(4-(2-oxa-6-azaspiro[3.3]heptan-6-yl)phenyl)-N-(cyclopentyl(pyrimidin-2-yl)methyl)-1H-indazole-5-carboxamide]
GI50 [1]: ≤ 100 nM
GI50 [2]: ≤ 100 nM
GI50 [3]: ≤ 100 nM

Compound: O=C(N[C@@H](c1ncccn1)C1CCCC1)c1ccc2[nH]nc(-c3ccc(N4CC5(COC5)C4)cc3)c2c1 [Example A26, (R)-3-(4-(2-oxa-6-azaspiro[3.3]heptan-6-yl)phenyl)-N-(cyclopentyl(pyrimidin-2-yl)methyl)-1H-indazole-5-carboxamide]
GI50 [1]: ≤ 100 nM
GI50 [2]: ≤ 100 nM
GI50 [3]: ≤ 100 nM

Compound: CC(C)C[C@H](NC(=O)c1ccc2[nH]nc(-c3ccc(N4CC5(COC5)C4)cc3)c2c1)c1ccccn1 [Example A27, (S)-3-(4-(2-oxa-6-azaspiro[3.3]heptan-6-yl)phenyl)-N-(3-methyl-1-(pyridin-2-yl)butyl)-1H-indazole-5-carboxamide]
GI50 [1]: ≤ 100 nM
GI50 [2]: ≤ 100 nM
GI50 [3]: ≤ 100 nM

Compound: CC(C)[C@H](NC(=O)c1ccc2[nH]nc(-c3ccc(N4CC5(CN(C)C5)C4)cc3)c2c1)c1ccccc1Cl [Example A28, (S)-N-(1-(2-Chlorophenyl)-2-methylpropyl)-3-(4-(6-methyl-2,6-diazaspiro[3.3]heptan-2-yl)phenyl)-1H-indazole-5-carboxamide]
GI50 [1]: ≤ 100 nM
GI50 [2]: ≤ 100 nM
GI50 [3]: ≤ 100 nM

The next lines start with the values.

GI50 [1]: ≤ 100 nM
GI50 [2]: ≤ 100 nM
GI50 [3]: ≤ 100 nM
Compound: CN1CC2(C1)CN(c1ccc(-c3n[nH]c4ccc(C(=O)N[C@H](c5ccccc5)C5CC5)cc34)cc1)C2 [Example A29, (S)-N-(Cyclopropyl(phenyl)methyl)-3-(4-(6-methyl-2,6-diazaspiro[3.3]heptan-2-yl)phenyl)-1H-indazole-5-carboxamide]

GI50 [1]: ≤ 100 nM
GI50 [2]: ≤ 100 nM
GI50 [3]: ≤ 100 nM
Compound: CC(C)[C@H](NC(=O)c1ccc2[nH]nc(-c3ccc(N4CC5(C4)CN(C4COC4)C5)cc3)c2c1)c1ccccc1Cl [Example A30, (S)-N-(1-(2-Chlorophenyl)-2-methylpropyl)-3-(4-(6-(oxetan-3-yl)-2,6-diazaspiro[3.3]heptan-2-yl)phenyl)-1H-indazole-5-carboxamide]

GI50 [1]: ≤ 100 nM
GI50 [2]: ≤ 100 nM
GI50 [3]: ≤ 100 nM
Compound: O=C(N[C@H](c1ccccn1)C1CCCC1)c1ccc2[nH]nc(-c3ccc(N4CC5(C4)CN(C4COC4)C5)cc3)c2c1 [Example A31, (S)-N-(Cyclopentyl(pyridin-2-yl)methyl)-3-(4-(6-(oxetan-3-yl)-2,6-diazaspiro[3.3]heptan-2-yl)phenyl)-1H-indazole-5-carboxamide]

GI50 [1]: ≤ 100 nM
GI50 [2]: ≤ 100 nM
GI50 [3]: ≤ 100 nM
Compound: O=C(N[C@H](c1ccccn1)C1CCCC1)c1ccc2[nH]nc(-c3ccc(N4CC5(CC(O)C5)C4)cc3)c2c1 [Example A33, (S)-N-(Cyclopentyl(pyridin-2-yl)methyl)-3-(4-(6-hydroxy-2-azaspiro[3.3]heptan-2-yl)phenyl)-1H-indazole-5-carboxamide]

GI50 [1]: 100 to 500 nM
GI50 [2]: 100 to 500 nM
GI50 [3]: 100 to 500 nM
Compound: O=C(N[C@H](c1ccccn1)C1CCCC1)c1ccc2[nH]nc(-c3ccc(N4CCC45COC5)cc3)c2c1 [Example A34, (S)-3-(4-(6-Oxa-1-azaspiro[3.3]heptan-1-yl)phenyl)-N-(cyclopentyl(pyridin-2-yl)methyl)-1H-indazole-5-carboxamide]

GI50 [1]: 100 to 500 nM
GI50 [2]: 100 to 500 nM
GI50 [3]: 100 to 500 nM
Compound: CC(C)C[C@H](NC(=O)c1ccc2[nH]nc(-c3ccc(N4CCC45COC5)cc3)c2c1)c1ccccn1 [Example A35, (S)-3-(4-(6-Oxa-1-azaspiro[3.3]heptan-1-yl)phenyl)-N-(3-methyl-1-(pyridin-2-yl)butyl)-1H-indazole-5-carboxamide]

GI50 [1]: ≤ 100 nM
GI50 [2]: ≤ 100 nM
GI50 [3]: ≤ 100 nM
Compound: O=C(N[C@@H](c1ncccn1)C1CCCC1)c1ccc2[nH]nc(-c3ccc(N4CCC45COC5)cc3)c2c1 [Example A37, (R)-3-(4-(6-oxa-1-azaspiro[3.3]heptan-1-yl)phenyl)-N-(cyclopentyl(pyrimidin-2-yl)methyl)-1H-indazole-5-carboxamide]
